In paper PMC12290954, “Synthesis, Characterization, Computational Evaluation, CO-Releasing Properties, and Molecular Docking Interactions of New [Mn(CO)3(bpy)L]PF6‑Type Molecules” (ACS Omega, 2025):

Tests used:
[1] = tested on: CT-DNA; experiment: DNA binding analysis, UV-vis, Benesi-Hildebrand method; conditions: 25 μM DNA, 0-35 μM complex, Tris-HCl pH 7.4, 1 h room temperature, absorbance at 260 nm
Protocol: DNA-binding properties of the molecules were analyzed with the Benesi–Hildebrand method with UV–vis spectroscopy. The stock solution of manganese complexes (3 mM) was prepared with DMSO, while a fresh stock solution of DNA from commercial CT-DNA was prepared in Tris-HCl buffer solution (pH = 7.4), and the ratio of A 260/A 280 of the DNA stock was recorded as 1.93. A certain concentration of DNA (25 μM) solution was incubated with different amounts of each complex (0, 5, 10, 15, 20, 25, 30, and 35 μM) for 1 h at room temperature. The absorption spectra of all solutions were recorded using a Shimadzu UV-1800 spectrophotometer between 240 and 500 nm.
In this study, the DNA-binding affinity of the molecules was also confirmed with a UV–vis spectrophotometer. […] While small fluctuations for 300 μM of each complex were recorded upon the addition of DNA solutions with different concentrations (0, 20, 40, 60, 80, 100, 120, and 140 μM) at 388 nm (Figures S6–S10), remarkable changes were detected at 260 nm, which is characteristic of DNA.
Here, A o is the absorbance of DNA in the absence of the manganese complex, A obs is the absorbance of DNA at 260 nm with different amounts of the molecules, [M] is the molar concentration of the molecules, and K b is the binding constant. […] These binding constants are moderately available for DNA-target drug candidates.

[2] = tested on: deoxymyoglobin; experiment: Myoglobin assay, CO release under 365 nm UV light; conditions: 365 nm lamp; for [MbCO] / Released-CO Equivalent / Half-life t 1/2 (50% of total CO release): 15 μM complex, pH 7.4; for [MbCO]: 60 μM myoglobin reduced with sodium dithionite; for Released-CO Equivalent / Half-life t 1/2 (50% of total CO release): 60 μM myoglobin; for Released-CO Percent: percent of the total CO
Protocol: The myoglobin solution, which was prepared in PBS (pH 7.4, 0.1 M), was reduced to deoxymyoglobin using sodium dithionite (100 mM). The solutions of each complex ([…]) in DMSO were incubated with deoxymyoglobin solution ([…]), and the final solution was exposed to 365 nm UV light from a distance of 2 cm. Deoxymyoglobin has a band at 557 nm, while carbonmonoxy-myoglobin has two identical bands at 540 and 577 nm, and the changes at these wavelengths make the process observable and determinable. Thus, the CO-releasing properties of the molecules were calculated using the Lambert–Beer Law.
The commonly used method for determining the CO-releasing of a molecule is UV–visible spectroscopy. There are various ways for releasing CO from a molecule such as substitution, decomposition, and photoactivation. , Manganese carbonyl complexes are known as photoactivatable CO-releasing molecules (photoCORM). A photoCORM must be stable in the dark while it releases CO upon exposure to light of a certain wavelength. […] The basic principle of the myoglobin assay is based on the formation of carbon monoxymyoglobin with the interaction of deoxymyoglobin with CORMs by the spectrophotometric method. […] A 15 μM solution of the complexes was incubated with a 60 μM myoglobin solution reduced with sodium dithionite in a pH 7.4 buffered medium, and the change was followed by the spectroscopic method. The CO-releasing properties of a molecule could be evaluated from two perspectives: the first is how fast the molecule’s release is, and the second is how high the rate of the releasing is.

[3] = molecular target: BSA (Bos taurus, UniProt P02769); experiment: BSA binding analysis, UV-vis, Benesi-Hildebrand method; parameters: species or system bovine; conditions: 15 μM BSA, 0-14 μM complex, PBS pH 7.4, 20 min room temperature, band at 280 nm
Protocol: BSA binding analysis of the molecules was performed with UV–vis spectroscopy, and the records were evaluated using the Benesi-Hildebrand equation. The BSA stock solution was freshly prepared in phosphate-buffered saline (pH 7.4), while the stock solutions of the molecules were prepared in DMSO. A certain BSA solution (15 μM) was incubated with each molecule at different concentrations (0, 2, 4, 6, 8, 10, 12, and 14 μM) for 20 min at room temperature. The absorption spectra of all solutions were recorded between 250 and 350 nm.

Sequence of BSA (P02769 25-607): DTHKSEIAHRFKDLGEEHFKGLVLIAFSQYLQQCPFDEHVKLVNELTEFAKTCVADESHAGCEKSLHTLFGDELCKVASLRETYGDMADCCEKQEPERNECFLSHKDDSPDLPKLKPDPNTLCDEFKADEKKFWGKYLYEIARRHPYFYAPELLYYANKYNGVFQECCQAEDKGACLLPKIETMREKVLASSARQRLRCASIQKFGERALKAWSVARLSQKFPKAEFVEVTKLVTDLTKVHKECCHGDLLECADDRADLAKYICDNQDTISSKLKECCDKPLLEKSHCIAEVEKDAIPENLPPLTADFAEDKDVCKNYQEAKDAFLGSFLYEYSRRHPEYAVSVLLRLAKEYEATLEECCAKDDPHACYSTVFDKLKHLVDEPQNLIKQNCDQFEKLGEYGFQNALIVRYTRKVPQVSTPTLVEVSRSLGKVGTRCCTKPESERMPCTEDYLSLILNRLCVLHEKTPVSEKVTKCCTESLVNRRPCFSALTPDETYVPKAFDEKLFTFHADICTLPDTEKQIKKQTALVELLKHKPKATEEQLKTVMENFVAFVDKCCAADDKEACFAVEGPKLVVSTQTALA

Molecule	BSA binding constant [3]	Half-life t 1/2 (50% of total CO release) [2] [min]	DNA binding constant K b [1]	[MbCO] [2] [µM]	Released-CO Equivalent [2]	Released-CO Percent [2] [%]
[Mn(CO)3(bpy)(1-(2-metallyl)benzimidazole)]PF6 [2c]	4.0 × 10^4 M^–1	–	1.8 × 10^4 M^–1	39.81	2.65	88
C=CCn1c[n+]([Mn-2]2(=[C]=O)(=[C]=O)(=[C]=O)[n+]3ccccc3-c3cccc[n+]32)c2ccccc21.F[P-](F)(F)(F)(F)F [2b, [Mn(CO)3(bpy)(1-allylbenzimidazole)]PF6]	4.3 × 10^4 M^–1	4.85	2.2 × 10^4 M^–1	39.51	2.63	88

Further lines, with some results ahead:

BSA binding constant [3]	Half-life t 1/2 (50% of total CO release) [2] [min]	Molecule	DNA binding constant K b [1]	[MbCO] [2] [µM]	Released-CO Equivalent [2]	Released-CO Percent [2] [%]
8.2 × 10^4 M^–1	–	[Mn(CO)3(bpy)(1-(3,3-dimethylallyl)benzimidazole)]PF6 [2d]	2.4 × 10^4 M^–1	30.34	2.02	67
3.6 × 10^4 M^–1	4.02	[Mn(CO)3(bpy)(1-isopropylbenzimidazole)]PF6 [2a]	3.2 × 10^4 M^–1	34.64	2.30	77
3.9 × 10^4 M^–1	–	[Mn(CO)3(bpy)(1-(2-vinyloxyethyl)benzimidazole)]PF6 [2e]	2.7 × 10^4 M^–1	40.41	2.69	90
